Assay [1] has as its target Ephrin type-A receptor 4 (Homo sapiens) (UniProt P54764). The assay can be described thus: Inhibition of human recombinant EphA4 at 40 nM related to control ULK1.
In assay [2] the target is Cyclin-dependent kinase 9 (Homo sapiens) (UniProt P50750). The assay can be described thus: Inhibition of human recombinant CDK9 at 40 nM in presence of ATP by radiometric assay relative to control.
Assay [3] deals with T1, NUAK family SNF1-like kinase 2 (Homo sapiens) (UniProt Q9H093).
T1 sequence (whole entry): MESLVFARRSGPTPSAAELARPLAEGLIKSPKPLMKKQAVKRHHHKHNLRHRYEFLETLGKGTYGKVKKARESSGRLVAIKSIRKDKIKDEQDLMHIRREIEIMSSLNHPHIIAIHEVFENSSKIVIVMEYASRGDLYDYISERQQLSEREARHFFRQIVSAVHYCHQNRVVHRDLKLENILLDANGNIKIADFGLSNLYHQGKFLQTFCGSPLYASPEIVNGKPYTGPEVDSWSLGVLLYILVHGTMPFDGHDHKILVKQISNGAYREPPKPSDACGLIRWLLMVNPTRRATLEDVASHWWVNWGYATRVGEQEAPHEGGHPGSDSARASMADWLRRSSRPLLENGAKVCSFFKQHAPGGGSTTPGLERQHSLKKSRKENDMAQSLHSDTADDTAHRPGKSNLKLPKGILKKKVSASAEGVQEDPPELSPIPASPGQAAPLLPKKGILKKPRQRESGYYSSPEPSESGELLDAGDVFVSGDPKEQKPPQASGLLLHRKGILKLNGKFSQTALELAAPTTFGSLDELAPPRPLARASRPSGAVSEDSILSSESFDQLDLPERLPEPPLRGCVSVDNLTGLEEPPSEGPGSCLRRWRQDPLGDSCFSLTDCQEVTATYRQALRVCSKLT
The assay can be described thus: Inhibition of human recombinant NuaK2 at 500 nM in presence of ATP by radiometric assay relative to control.

In assay [4] the target is Protein kinase C beta type (Homo sapiens) (UniProt P05771). In words: Inhibition of human recombinant PKCb at 15 nM related to control ULK1.
Assay [5] has as its target T2, Serine/threonine-protein kinase ICK (Homo sapiens) (UniProt Q9UPZ9).
T2 sequence (whole entry): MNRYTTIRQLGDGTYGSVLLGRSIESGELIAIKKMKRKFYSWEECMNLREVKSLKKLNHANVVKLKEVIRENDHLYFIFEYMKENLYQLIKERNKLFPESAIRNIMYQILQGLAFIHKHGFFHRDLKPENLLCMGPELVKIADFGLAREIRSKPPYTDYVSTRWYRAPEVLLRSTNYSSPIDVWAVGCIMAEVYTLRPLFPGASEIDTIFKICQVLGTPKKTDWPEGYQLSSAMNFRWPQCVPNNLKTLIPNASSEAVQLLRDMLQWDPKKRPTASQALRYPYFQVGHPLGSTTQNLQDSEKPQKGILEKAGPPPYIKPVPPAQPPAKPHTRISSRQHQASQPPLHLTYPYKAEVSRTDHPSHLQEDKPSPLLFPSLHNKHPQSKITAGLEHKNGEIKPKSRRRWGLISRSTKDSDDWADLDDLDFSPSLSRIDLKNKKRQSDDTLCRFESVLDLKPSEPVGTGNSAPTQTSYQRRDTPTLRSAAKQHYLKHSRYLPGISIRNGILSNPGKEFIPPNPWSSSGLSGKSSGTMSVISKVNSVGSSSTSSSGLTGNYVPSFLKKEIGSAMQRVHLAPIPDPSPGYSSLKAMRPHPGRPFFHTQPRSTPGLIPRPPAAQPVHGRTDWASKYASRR
In words: Inhibition of human recombinant ICK at 15 nM related to control ULK1.

Assay [6] addresses T3, Serine/threonine-protein kinase TAO1 (Homo sapiens) (UniProt Q7L7X3).
T3 sequence (whole entry): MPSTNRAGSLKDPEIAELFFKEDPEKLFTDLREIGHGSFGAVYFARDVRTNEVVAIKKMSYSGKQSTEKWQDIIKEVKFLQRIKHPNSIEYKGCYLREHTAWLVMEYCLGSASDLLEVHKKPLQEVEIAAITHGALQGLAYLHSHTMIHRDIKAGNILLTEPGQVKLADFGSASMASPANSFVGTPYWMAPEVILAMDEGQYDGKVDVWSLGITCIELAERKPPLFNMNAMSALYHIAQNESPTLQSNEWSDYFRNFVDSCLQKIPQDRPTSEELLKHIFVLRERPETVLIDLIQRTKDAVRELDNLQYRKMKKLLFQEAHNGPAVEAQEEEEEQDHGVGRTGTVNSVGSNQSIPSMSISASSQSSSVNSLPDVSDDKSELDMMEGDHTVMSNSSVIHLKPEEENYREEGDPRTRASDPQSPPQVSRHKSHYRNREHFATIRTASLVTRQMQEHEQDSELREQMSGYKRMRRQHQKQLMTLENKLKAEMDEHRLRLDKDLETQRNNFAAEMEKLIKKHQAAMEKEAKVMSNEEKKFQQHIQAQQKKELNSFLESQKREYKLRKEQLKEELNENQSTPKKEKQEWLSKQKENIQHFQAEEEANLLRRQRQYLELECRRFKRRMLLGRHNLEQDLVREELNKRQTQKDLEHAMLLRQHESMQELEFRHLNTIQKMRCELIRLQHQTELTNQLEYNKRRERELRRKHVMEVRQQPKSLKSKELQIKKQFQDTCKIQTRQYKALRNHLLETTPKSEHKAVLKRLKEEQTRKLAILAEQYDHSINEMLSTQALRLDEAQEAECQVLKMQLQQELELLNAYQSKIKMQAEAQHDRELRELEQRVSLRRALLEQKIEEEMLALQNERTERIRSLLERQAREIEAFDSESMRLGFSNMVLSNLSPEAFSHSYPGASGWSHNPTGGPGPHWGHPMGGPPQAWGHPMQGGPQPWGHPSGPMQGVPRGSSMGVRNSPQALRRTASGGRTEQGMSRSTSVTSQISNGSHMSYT
The assay can be described thus: Inhibition of human recombinant TAO1 at 15 nM in presence of ATP by radiometric assay relative to control.

Cyclin-dependent kinase 9 (Homo sapiens), sequence (P50750 whole entry): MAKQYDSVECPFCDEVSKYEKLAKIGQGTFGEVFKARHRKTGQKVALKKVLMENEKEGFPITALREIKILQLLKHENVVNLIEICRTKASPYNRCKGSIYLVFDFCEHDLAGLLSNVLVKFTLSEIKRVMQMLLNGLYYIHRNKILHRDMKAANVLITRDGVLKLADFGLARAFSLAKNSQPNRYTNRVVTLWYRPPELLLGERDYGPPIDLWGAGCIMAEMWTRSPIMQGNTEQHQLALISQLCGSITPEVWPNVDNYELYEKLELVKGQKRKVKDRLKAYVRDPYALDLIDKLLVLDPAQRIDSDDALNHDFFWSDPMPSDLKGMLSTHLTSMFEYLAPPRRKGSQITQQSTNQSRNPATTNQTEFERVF
Protein kinase C beta type (Homo sapiens), sequence (P05771 2-671 limits assumed): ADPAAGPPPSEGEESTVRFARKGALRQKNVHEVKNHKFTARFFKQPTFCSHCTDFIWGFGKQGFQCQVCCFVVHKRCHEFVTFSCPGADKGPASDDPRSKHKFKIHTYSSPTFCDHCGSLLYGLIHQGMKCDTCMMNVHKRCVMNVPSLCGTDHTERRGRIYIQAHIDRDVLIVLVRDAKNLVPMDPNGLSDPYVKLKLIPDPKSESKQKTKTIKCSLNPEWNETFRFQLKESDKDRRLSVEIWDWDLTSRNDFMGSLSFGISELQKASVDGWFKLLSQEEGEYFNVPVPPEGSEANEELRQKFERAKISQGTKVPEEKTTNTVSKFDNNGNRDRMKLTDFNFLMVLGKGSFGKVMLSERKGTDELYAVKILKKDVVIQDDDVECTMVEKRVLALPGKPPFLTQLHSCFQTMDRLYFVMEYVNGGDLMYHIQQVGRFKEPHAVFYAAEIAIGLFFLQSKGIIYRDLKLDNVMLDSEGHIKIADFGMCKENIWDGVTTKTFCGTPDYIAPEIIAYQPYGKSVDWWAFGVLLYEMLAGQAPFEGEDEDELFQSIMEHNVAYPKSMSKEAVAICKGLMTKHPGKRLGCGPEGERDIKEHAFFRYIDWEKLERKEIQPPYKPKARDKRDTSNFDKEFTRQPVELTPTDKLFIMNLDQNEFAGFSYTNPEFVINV
Ephrin type-A receptor 4 (Homo sapiens), sequence (P54764 whole entry): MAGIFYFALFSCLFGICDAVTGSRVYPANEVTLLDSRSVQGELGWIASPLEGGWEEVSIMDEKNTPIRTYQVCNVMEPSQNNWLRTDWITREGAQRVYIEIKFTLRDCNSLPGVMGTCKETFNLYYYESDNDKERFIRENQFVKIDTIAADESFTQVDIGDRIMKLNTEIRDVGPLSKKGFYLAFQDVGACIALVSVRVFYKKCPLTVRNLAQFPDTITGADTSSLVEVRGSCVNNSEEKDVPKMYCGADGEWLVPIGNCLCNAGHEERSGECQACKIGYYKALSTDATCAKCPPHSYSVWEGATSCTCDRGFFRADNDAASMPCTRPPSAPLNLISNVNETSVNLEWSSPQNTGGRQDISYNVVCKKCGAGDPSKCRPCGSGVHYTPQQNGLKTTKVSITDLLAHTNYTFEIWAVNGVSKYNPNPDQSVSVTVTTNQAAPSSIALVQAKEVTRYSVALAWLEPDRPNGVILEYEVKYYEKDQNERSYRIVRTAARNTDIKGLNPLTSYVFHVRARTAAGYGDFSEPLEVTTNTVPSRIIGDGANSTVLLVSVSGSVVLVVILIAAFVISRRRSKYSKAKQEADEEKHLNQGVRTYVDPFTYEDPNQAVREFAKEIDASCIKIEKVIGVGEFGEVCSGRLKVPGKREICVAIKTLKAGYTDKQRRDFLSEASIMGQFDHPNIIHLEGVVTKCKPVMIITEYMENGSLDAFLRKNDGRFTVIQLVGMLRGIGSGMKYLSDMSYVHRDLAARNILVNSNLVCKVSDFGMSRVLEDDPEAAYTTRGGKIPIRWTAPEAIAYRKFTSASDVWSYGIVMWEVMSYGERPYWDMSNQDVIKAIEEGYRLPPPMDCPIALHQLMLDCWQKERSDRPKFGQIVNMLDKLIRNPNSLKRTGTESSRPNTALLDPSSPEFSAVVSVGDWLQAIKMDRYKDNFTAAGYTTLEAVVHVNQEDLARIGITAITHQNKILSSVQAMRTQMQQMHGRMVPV

In general, inhibition refers to how much of the control response was suppressed. `O=C(N[C@@H](C1CC1)C(F)(F)F)c1cc(-c2cnn3cc(-c4ccc(F)cc4)cnc23)cs1`: the fold change (FC) in assay [1] turned out to be 0. In addition, the inhibition in assay [2] was 0%.

`CNC(=O)c1ccccc1Oc1nc(Nc2cc(OC)c(OC)c(OC)c2)ncc1Br`: the inhibition in assay [3] worked out at 64%.

On to `CC(C)[C@H](NC(=O)c1cc(-c2cnn3cc(-c4ccc(OCCN5CCCCC5)cc4)cnc23)cs1)C(F)(F)F`, for which the fold change (FC) in assay [4] and in assay [5] was 0 in each case. Further, in assay [6], the inhibition stood at 0%.
